Experimental data published in ChEMBL document CHEMBL1136148, “Tetrabiphenylporphyrin-based receptors for protein surfaces show sub-nanomolar affinity and enhance unfolding” (Bioorg Med Chem Lett, 2003).
pKd: −log10 of the molar value.

Assay: Binding ability of the receptor to the surface of Cytochrome c and activity expressed as Dissociation constant(Kd)
Parameters: species or system Equus caballus

| pKd | SMILES |
| --- | --- |
| 4.77 | O=C(O)c1ccc(-c2ccc(-c3c4nc(c(-c5ccc(-c6ccc(C(=O)O)cc6)cc5)c5ccc([nH]5)c(-c5ccc(-c6ccc(C(=O)O)cc6)cc5)c5ccc([nH]5)c(-c5ccc(-c6ccc(C(=O)O)cc6)cc5)c5nc3C=C5)C=C4)cc2)cc1 |
| 5.77 | COC(=O)[C@H](CC(=O)O)NC(=O)c1cc(C(=O)N[C@@H](CC(=O)O)C(=O)OC)cc(-c2ccc(-c3c4nc(c(-c5ccc(-c6cc(C(=O)N[C@@H](CC(=O)O)C(=O)OC)cc(C(=O)N[C@@H](CC(=O)O)C(=O)OC)c6)cc5)c5ccc([nH]5)c(-c5ccc(-c6cc(C(=O)N[C@@H](CC(=O)O)C(=O)OC)cc(C(=O)N[C@H](CC(=O)O)C(=O)OC)c6)cc5)c5nc(c(-c6ccc(-c7cc(C(=O)N[C@@H](CC(=O)O)C(=O)OC)cc(C(=O)N[C@@H](CC(=O)O)C(=O)OC)c7)cc6)c6ccc3[nH]6)C=C5)C=C4)cc2)c1 |
| 5.82 | O=C(O)c1cc(C(=O)O)cc(-c2ccc(-c3c4nc(c(-c5ccc(-c6cc(C(=O)O)cc(C(=O)O)c6)cc5)c5ccc([nH]5)c(-c5ccc(-c6cc(C(=O)O)cc(C(=O)O)c6)cc5)c5ccc([nH]5)c(-c5ccc(-c6cc(C(=O)O)cc(C(=O)O)c6)cc5)c5nc3C=C5)C=C4)cc2)c1 |
| 9.17 | O=C(O)C[C@H](NC(=O)c1cc(C(=O)N[C@@H](CC(=O)O)C(=O)O)cc(-c2ccc(-c3c4nc(c(-c5ccc(-c6cc(C(=O)N[C@@H](CC(=O)O)C(=O)O)cc(C(=O)N[C@@H](CC(=O)O)C(=O)O)c6)cc5)c5ccc([nH]5)c(-c5ccc(-c6cc(C(=O)N[C@@H](CC(=O)O)C(=O)O)cc(C(=O)N[C@H](CC(=O)O)C(=O)O)c6)cc5)c5nc(c(-c6ccc(-c7cc(C(=O)N[C@@H](CC(=O)O)C(=O)O)cc(C(=O)N[C@@H](CC(=O)O)C(=O)O)c7)cc6)c6ccc3[nH]6)C=C5)C=C4)cc2)c1)C(=O)O |
